In ChEMBL document CHEMBL1201862, “PubChem BioAssay data set” (2004):
Active and inactive are the calls of the source.

Experiments:
[1] = target: T1, DNA dC->dU-editing enzyme APOBEC-3A (Homo sapiens, UniProt P31941); experiment: Dose Response confirmation of small molecule APOBEC3A DNA Deaminase Inhibitors via a fluorescence-based single-stranded DNA deaminase assay. [Related pubchem assays (depositor defined):AID493011, AID493024]; assay type: functional
[2] = target: T2, DNA dC->dU-editing enzyme APOBEC-3G (Homo sapiens, UniProt Q9HC16); assay type: functional
[3] = target: T1, DNA dC->dU-editing enzyme APOBEC-3A; experiment: SAR analysis of small molecule inhibitors of APOBEC3A DNA Deaminase via a fluorescence-based single-stranded DNA deaminase assay - Set 2.; assay type: functional; conditions: read-out: IC50_Mean
[4] = target: T2, DNA dC->dU-editing enzyme APOBEC-3G; experiment: SAR analysis of small molecule inhibitors of APOBEC3G DNA Deaminase via a fluorescence-based single-stranded DNA deaminase assay - Set 2.; assay type: functional; conditions: read-out: IC50_Mean
[5] = target: T2, DNA dC->dU-editing enzyme APOBEC-3G; experiment: inhibition of APOBEC3G ssDNA deamination – biochemical, fluorescence, single-stranded DNA substrate, SAR follow-up (AID 602136); assay type: functional; conditions: read-out: IC50_Mean
[6] = target: T1, DNA dC->dU-editing enzyme APOBEC-3A; experiment: SAR analysis of small molecule inhibitors of APOBEC3A DNA Deaminase via a fluorescence-based single-stranded DNA deaminase assay.; assay type: functional; conditions: read-out: IC50_Mean
H9c2 = experiment: cells; assay type: functional, cell-based; conditions: Rattus norvegicus, H9c2, Myocardium;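 note: confirmatory concentration-response retest of ultra-high-throughput screening hits for modulation of myocardial damage; cell death induced by hydrogen peroxide oxidative stress; compound pretreatment for 60 min then peroxide exposure for 2 h; potency is for protecting the cells against peroxide damage rather than for killing them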
[7] = bead-based luminescence quenchers, dual-tagged ARNT – biochemical, AlphaScreen, cherry-pick, artefact control for ARNT-TACC3 interaction inhibitor project, dose response (AID 651705); assay type: functional;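 note: AlphaScreen bead proximity signal that flags compounds interfering with the detection technology; potency reflects signal decrease which marks the compound as an assay artifact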
[8] = inhibition of ARNT PAS-B/TACC3 complex formation – biochemical, AlphaScreen, cherry-picked samples, confirmation (AID 651703); assay type: functional, Homo sapiens;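 note: His-tagged ARNT PAS-B domain paired with GST-TACC3 E629A dimer coactivator fragment; potency of inhibitors that break up the complex and lower AlphaScreen signal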
Melanocortin receptor 4 = Melanocortin receptor 4 (Homo sapiens, UniProt P32245); assay type: functional, cell-based;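 note: Cell-based assay with luminescence read-out, confirmatory dose-response testing for agonist activity of biased ligands at MC4R; human U2OS cells with tagged receptor and beta-arrestin; potency of agonists that increase receptor coupling to beta-arrestin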
[9] = target: Serine/threonine-protein kinase pim-1 (Homo sapiens, UniProt P11309); assay type: functional
[10] = target: Cell division cycle 7-related protein kinase (Homo sapiens, UniProt O00311); assay type: functional;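 note: value obtained from a kinome-wide kinase panel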
[11] = target: Homeodomain-interacting protein kinase 2 (Homo sapiens, UniProt Q9H2X6); assay type: functional;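 note: measured within a kinome-wide kinase profiling panel, HIPK2 being one panel member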
[12] = target: T3, Interleukin-1 receptor-associated kinase 4 (Homo sapiens, UniProt Q9NWZ3); assay type: functional
T3 sequence (Q9NWZ3 whole entry): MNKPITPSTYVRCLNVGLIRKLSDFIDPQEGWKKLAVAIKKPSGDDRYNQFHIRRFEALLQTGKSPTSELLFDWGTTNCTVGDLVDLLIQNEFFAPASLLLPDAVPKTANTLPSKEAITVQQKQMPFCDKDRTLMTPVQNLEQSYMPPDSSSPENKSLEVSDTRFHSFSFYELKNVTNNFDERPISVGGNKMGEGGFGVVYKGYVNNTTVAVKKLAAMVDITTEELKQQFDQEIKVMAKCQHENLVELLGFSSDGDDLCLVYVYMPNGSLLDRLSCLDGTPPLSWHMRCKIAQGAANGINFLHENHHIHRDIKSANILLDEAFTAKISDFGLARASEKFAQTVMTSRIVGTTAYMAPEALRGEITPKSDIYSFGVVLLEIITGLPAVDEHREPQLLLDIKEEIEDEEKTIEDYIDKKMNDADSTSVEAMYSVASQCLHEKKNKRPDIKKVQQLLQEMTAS

[13] = target: Glycogen synthase kinase-3 beta (Homo sapiens, UniProt P49841); assay type: functional;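 note: value comes from a broad kinome profiling panel, with GSK3B as the panel member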
[14] = target: cAMP-dependent protein kinase catalytic subunit alpha (Homo sapiens, UniProt P17612); assay type: functional
[15] = target: Dual specificity protein kinase CLK4 (Homo sapiens, UniProt Q9HAZ1); assay type: functional
[16] = target: Mitogen-activated protein kinase kinase kinase kinase 4 (Homo sapiens, UniProt O95819); assay type: functional
[17] = target: Tyrosine-protein kinase Lck (Homo sapiens, UniProt P06239); assay type: functional;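 note: lck was assayed as one member of a kinase panel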
[18] = target: Mast/stem cell growth factor receptor Kit (Homo sapiens, UniProt P10721); assay type: functional;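 note: KIT entry within a kinase panel assay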
[19] = target: Tyrosine-protein kinase Lyn (Homo sapiens, UniProt P07948); assay type: functional;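 note: lyn as one member of a kinase panel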
[20] = target: Tyrosine-protein kinase Blk (Homo sapiens, UniProt P51451); assay type: functional;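 note: obtained as one member of a kinome-wide kinase assay panel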
[21] = target: High affinity nerve growth factor receptor (Homo sapiens, UniProt P04629); assay type: functional;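 note: NTRK1 tested as one member of a kinome-wide profiling panel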
[22] = target: Proto-oncogene tyrosine-protein kinase Src (Homo sapiens, UniProt P12931); assay type: functional;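 note: SRC entry within a kinome-wide kinase profiling panel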
[23] = target: T4, Receptor-type tyrosine-protein kinase FLT3 (Homo sapiens, UniProt P36888); assay type: functional;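 note: FLT3 was tested as one member of a kinome-wide kinase panel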
T4 sequence (P36888 whole entry): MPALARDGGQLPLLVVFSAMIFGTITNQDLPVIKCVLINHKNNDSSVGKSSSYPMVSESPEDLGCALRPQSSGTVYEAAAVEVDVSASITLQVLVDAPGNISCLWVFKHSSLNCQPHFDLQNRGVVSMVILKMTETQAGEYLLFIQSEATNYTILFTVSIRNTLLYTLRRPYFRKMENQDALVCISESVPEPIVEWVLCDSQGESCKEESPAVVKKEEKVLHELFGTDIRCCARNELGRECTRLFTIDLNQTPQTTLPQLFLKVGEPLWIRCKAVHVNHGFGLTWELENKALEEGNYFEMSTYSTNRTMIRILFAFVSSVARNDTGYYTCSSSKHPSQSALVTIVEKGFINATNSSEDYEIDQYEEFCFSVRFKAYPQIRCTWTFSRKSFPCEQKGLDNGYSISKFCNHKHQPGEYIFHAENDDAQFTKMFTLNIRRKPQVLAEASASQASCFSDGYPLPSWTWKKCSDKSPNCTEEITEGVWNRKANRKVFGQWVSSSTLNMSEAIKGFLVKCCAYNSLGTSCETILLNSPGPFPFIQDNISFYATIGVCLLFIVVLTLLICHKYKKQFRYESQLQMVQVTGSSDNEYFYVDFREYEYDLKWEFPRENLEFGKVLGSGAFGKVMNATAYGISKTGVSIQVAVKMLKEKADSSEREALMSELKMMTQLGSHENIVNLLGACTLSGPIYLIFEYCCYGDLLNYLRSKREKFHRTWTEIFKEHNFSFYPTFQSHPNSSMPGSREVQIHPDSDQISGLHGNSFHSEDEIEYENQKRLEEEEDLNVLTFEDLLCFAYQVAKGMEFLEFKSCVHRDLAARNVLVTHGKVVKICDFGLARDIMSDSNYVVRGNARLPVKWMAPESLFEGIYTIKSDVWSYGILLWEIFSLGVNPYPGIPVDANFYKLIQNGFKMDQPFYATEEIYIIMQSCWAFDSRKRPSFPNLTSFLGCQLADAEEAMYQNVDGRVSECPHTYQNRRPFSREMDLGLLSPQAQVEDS

[24] = target: Tyrosine-protein kinase ABL1 (Homo sapiens, UniProt P00519); assay type: functional
[25] = target: Vascular endothelial growth factor receptor 2 (Homo sapiens, UniProt P35968); assay type: functional
[26] = target: Vascular endothelial growth factor receptor 3 (Homo sapiens, UniProt P35916); assay type: functional;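 note: value from a kinome-wide profiling panel, with FLT4 as the panel member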
[27] = target: Tyrosine-protein kinase Fyn (Homo sapiens, UniProt P06241); assay type: functional
[28] = target: Vascular endothelial growth factor receptor 1 (Homo sapiens, UniProt P17948); assay type: functional;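 note: measured within a kinome-wide profiling panel, FLT1 as the panel member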
[29] = target: Macrophage colony-stimulating factor 1 receptor (Homo sapiens, UniProt P07333); assay type: functional;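 note: value comes from the Navigating the Kinome screening panel, CSF1R member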
[30] = target: T5, ATP-dependent translocase ABCB1 (Homo sapiens, UniProt P08183); experiment: inhibition of BCRP-mediated JC-1 efflux – Ig-MXP3 cells, flow cytometry, set 2, dose response (AID 504566); assay type: functional; conditions: read-out: EC50_MICROM_;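 note: flow cytometry median green fluorescence of retained JC-1 dye; potency of efflux pump inhibition measured as rising substrate retention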
[31] = target: T5, ATP-dependent translocase ABCB1; experiment: P-gp JC-1 efflux blockade concentration-response – Jurkat-DNR cells, flow cytometry, set 2, dose response (AID 504569); assay type: functional; conditions: read-out: EC50_MICROM_;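 note: potency of pump inhibitors that raise cellular JC-1 green fluorescence up to the nicardipine level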
[32] = target: Aryl hydrocarbon receptor (Homo sapiens, UniProt P35869); conditions: Potency;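 note: confirmatory quantitative high-throughput screen measuring activation of the AhR signaling pathway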
[33] = target: Mitochondrial peptide methionine sulfoxide reductase (Bos taurus, UniProt P54149); assay type: functional;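 note: absorbance read-out, biochemical high-throughput dose-response screen for MsrA inhibitors, confirmatory; recombinant bovine MsrA coupled to E. coli TrxB with NADPH and selenocystamine; potency is for inhibitors of MsrA activity on DMSO substrate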

T1 sequence (P31941 whole entry): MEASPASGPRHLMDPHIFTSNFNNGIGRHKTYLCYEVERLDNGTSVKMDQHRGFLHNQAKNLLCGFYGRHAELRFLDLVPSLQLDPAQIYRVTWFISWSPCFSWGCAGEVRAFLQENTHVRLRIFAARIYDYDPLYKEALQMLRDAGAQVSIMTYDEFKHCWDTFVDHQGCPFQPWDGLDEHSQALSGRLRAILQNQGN
T2 sequence (Q9HC16 whole entry): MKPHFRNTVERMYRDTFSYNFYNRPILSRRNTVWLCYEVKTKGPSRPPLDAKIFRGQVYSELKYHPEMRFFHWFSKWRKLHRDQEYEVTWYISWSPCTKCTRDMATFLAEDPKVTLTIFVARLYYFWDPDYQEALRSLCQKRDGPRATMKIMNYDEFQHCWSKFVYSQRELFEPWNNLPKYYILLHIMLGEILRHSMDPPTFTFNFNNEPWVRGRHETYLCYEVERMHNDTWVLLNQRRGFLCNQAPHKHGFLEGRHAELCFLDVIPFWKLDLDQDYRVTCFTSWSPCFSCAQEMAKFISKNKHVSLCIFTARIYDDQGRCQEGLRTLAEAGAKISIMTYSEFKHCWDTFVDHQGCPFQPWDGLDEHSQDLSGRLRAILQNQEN
Tyrosine-protein kinase Lyn, sequence (P07948 whole entry): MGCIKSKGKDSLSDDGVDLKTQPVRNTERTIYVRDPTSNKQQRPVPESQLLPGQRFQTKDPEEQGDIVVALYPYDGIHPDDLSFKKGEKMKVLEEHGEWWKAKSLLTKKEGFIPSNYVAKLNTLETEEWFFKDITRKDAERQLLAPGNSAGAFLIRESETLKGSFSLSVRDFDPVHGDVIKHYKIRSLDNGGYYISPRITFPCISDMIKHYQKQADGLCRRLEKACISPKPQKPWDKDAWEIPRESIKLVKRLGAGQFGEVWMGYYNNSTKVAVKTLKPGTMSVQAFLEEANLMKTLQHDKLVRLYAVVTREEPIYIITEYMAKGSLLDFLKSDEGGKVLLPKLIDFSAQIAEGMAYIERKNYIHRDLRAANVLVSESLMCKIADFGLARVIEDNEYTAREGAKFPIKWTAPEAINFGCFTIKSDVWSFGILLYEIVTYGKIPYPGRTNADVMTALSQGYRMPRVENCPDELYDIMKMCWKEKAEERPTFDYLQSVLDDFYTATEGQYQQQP
Tyrosine-protein kinase Lck, sequence (P06239 whole entry): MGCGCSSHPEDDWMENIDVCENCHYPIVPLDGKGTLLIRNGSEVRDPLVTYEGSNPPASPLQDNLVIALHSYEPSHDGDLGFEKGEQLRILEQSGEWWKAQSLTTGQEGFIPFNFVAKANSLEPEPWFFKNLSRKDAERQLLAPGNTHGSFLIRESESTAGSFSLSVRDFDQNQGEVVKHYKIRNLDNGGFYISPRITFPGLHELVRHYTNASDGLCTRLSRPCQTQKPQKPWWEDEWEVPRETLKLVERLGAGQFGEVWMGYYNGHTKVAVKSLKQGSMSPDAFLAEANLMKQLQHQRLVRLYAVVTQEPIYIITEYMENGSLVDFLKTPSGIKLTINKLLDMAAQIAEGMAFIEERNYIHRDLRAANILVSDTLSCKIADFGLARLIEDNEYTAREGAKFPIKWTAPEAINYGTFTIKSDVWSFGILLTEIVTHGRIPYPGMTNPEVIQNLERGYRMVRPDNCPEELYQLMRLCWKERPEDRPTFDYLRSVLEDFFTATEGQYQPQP
Homeodomain-interacting protein kinase 2, sequence (Q9H2X6 whole entry): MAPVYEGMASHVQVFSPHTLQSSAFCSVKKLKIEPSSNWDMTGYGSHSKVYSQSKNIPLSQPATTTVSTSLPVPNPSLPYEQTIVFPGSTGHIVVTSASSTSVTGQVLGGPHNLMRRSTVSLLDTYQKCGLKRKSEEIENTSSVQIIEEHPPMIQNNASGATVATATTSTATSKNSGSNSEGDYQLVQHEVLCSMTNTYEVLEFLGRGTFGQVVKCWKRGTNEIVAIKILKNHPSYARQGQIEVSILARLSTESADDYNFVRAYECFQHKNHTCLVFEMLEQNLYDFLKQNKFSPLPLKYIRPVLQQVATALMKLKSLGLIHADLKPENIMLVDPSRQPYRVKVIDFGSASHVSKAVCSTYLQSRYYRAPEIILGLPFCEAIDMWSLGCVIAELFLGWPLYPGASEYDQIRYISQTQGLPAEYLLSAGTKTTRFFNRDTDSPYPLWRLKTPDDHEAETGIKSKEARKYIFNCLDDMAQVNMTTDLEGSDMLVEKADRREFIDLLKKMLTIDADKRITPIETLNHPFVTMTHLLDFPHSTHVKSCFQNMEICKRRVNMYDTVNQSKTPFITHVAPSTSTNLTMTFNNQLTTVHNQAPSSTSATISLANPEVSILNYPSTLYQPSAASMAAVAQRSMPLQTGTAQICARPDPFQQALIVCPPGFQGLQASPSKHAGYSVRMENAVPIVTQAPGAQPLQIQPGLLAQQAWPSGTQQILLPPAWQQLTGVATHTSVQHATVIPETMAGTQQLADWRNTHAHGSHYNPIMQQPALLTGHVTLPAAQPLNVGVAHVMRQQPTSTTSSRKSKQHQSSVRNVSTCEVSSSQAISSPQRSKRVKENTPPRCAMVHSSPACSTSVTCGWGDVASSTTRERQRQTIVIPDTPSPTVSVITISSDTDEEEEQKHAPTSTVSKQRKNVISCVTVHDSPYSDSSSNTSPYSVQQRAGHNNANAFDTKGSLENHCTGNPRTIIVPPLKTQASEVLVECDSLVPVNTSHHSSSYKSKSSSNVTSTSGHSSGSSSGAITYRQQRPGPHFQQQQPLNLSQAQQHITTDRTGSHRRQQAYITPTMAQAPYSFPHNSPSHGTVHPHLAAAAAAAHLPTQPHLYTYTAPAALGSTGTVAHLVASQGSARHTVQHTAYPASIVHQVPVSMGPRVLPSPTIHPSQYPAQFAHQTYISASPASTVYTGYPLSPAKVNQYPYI
Vascular endothelial growth factor receptor 1, sequence (P17948 whole entry): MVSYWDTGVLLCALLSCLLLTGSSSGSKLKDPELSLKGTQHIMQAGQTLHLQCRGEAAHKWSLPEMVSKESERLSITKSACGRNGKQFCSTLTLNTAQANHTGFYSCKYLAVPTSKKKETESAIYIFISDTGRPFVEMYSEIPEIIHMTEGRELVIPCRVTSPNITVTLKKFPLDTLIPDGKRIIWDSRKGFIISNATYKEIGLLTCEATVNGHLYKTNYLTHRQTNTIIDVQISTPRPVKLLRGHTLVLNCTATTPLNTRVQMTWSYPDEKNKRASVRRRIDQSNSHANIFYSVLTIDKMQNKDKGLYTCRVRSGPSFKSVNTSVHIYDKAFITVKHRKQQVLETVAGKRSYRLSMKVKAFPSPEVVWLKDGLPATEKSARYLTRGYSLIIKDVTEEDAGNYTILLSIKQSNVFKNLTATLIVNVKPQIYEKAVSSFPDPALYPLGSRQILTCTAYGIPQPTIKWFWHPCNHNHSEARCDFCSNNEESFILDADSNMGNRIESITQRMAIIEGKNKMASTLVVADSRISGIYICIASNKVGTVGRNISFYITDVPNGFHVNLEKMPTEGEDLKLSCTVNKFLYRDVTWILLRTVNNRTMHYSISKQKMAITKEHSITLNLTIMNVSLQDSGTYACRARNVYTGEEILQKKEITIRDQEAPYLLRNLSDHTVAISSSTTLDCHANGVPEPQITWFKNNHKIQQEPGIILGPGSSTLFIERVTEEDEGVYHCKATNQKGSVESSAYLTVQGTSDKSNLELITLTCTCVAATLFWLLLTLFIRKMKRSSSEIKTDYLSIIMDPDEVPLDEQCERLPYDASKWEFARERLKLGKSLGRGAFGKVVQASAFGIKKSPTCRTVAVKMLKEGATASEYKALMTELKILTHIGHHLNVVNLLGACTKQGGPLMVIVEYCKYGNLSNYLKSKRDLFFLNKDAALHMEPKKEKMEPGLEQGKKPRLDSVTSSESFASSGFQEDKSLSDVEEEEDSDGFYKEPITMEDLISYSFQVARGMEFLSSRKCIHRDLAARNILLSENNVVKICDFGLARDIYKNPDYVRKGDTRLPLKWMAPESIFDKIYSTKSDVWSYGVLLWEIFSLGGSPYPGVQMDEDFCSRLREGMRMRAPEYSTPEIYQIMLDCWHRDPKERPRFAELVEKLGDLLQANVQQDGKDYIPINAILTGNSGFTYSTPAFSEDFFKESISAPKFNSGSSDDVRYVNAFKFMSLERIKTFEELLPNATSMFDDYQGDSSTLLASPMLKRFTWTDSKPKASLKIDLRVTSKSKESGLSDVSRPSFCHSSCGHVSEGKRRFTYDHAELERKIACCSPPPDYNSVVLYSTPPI
Serine/threonine-protein kinase pim-1, sequence (P11309 whole entry): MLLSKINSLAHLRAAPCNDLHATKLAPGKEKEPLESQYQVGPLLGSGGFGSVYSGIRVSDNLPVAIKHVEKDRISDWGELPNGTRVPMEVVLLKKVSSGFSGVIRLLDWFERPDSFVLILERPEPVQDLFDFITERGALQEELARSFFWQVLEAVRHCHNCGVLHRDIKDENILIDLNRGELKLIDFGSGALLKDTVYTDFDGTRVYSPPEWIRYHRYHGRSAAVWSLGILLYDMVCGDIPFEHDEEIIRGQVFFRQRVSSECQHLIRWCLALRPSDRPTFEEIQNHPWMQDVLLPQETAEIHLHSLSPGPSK
Glycogen synthase kinase-3 beta, sequence (P49841 whole entry): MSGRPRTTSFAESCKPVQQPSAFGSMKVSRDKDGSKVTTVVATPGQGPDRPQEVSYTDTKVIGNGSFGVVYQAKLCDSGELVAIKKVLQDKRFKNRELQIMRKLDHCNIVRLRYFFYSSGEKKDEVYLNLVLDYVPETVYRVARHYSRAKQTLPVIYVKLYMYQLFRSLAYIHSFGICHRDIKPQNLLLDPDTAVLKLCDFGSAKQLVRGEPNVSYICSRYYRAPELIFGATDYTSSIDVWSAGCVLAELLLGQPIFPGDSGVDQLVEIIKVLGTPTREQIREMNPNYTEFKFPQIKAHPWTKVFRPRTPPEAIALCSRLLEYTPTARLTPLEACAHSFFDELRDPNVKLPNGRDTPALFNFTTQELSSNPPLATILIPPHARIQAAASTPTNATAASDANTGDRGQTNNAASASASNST

Q: Which results are given for `Cc1ccc[n+](CC(=O)Nc2cc(C(F)(F)F)ccc2N2CCOCC2)c1`?
A: IC50 [1]: 2880 nM (active); IC50 [2]: 7420 nM (active); IC50 [3]: 26600 nM (inactive); IC50 [4]: 601 nM (active); IC50 [5]: 9170 nM (active); IC50 [6]: 20300 nM (inactive)

Q: Which results are given for `Brc1ccc(-c2nn3c(-c4ccccn4)nnc3s2)o1`?
A: IC50 (H9c2): 14800 nM (active); AC50 [7]: 104000 nM (active)

Q: Which AC50 [8] does the source give for `N=C(NNS(=O)(=O)c1cc(C(F)(F)F)cc(C(F)(F)F)c1)c1ccccn1` here?
A: Its AC50 is 104000 nM (active).

Q: For `Cc1c(-c2ccnc3cc(C(=O)O)nn23)cnn1C`, which IC50 [3] is on record?
A: The IC50 was 88900 nM (inactive).

Q: What about the IC50 [4] of the same compound?
A: The IC50 was > 99000 nM (inactive).

Q: With `COc1ccccc1-c1cc(NC=O)c2ncc(-c3cccc(C(F)(F)F)c3)n2c1` as the compound, how does the EC50 (Melanocortin receptor 4) read?
A: Its EC50 is > 89200 nM (inactive).

Q: For `O=C(NCc1ccccc1)c1c[nH]n2c(=O)cc(-c3ccncc3)nc12`, which Ki [9] is on record?
A: The Ki was 25.1 nM (active).

Q: And the Ki [10]?
A: Its Ki is 5.01 nM (active).

Q: What about the Ki [11] of the same compound?
A: Its Ki is 20 nM (active).

Q: And the Ki [12]?
A: The Ki was 6310 nM (active).

Q: And the Ki [13]?
A: The Ki was 2.51 nM (active).

Q: What about the Ki [14] of the same compound?
A: The Ki was 3980 nM (active).

Q: And the Ki [15]?
A: The Ki was 5.01 nM (active).

Q: And the Ki [16]?
A: Its Ki is 100 nM (active).

Q: Which Ki [9] does the source give for `OCCNc1cc(-c2c[nH]c3ncccc23)cc(Cl)n1` here?
A: Its Ki is 1580 nM (active).

Q: And the Ki [10]?
A: The Ki was 2.51 nM (active).

Q: What about the Ki [11] of the same compound?
A: The Ki was 79.4 nM (active).

Q: What about the Ki [12] of the same compound?
A: Its Ki is 1260 nM (active).

Q: And the Ki [13]?
A: The Ki was 200 nM (active).

Q: What about the Ki [14] of the same compound?
A: The Ki was 158 nM (active).

Q: And the Ki [16]?
A: Its Ki is 3.98 nM (active).

Q: Which results are given for `Nc1n[nH]c2cccc(-c3ccc(NC(=O)Nc4cccc(Cl)c4)c(F)c3)c12`?
A: Ki [17]: 100 nM (active); pKi [17]: 7; Ki [18]: 0.794 nM (active); pKi [18]: 9.1; Ki [19]: 158 nM (active); pKi [19]: 6.8; Ki [20]: 200 nM (active); pKi [20]: 6.7; Ki [21]: 1260 nM (active); pKi [21]: 5.9; Ki [22]: 501 nM (active); Ki [23]: 1 nM (active); pKi [23]: 9; Ki [24]: 501 nM (active); pKi [24]: 6.3; Ki [25]: 3.16 nM (active); pKi [25]: 8.5; Ki [26]: 3.16 nM (active); pKi [26]: 8.5; Ki [27]: 398 nM (active); pKi [27]: 6.4; Ki [28]: 0.631 nM (active); pKi [28]: 9.2; Ki [29]: 2 nM (active); pKi [29]: 8.7

Q: With `COc1ccc(-c2cc3nc(-c4ccccc4)cc(N4CCN(C(=O)c5ccsc5)CC4)n3n2)cc1` as the compound, how does the EC50 [30] read?
A: The EC50 was 770 nM (active).

Q: What about the EC50 [31] of the same compound?
A: The EC50 was 1020 nM (active).

Q: With `O=C(O)c1cc2ccccc2cc1O` as the compound, how does the AC50 [32] read?
A: Its AC50 is 50100 nM (inconclusive).

Q: Which IC50 [33] does the source give for `CCOC(=O)CC(C)(C)/C(C)=N/Nc1ccc([N+](=O)[O-])cc1[N+](=O)[O-]` here?
A: The IC50 was 155000 nM (inactive).
